{"source": "patent US20100267561A1", "about": "“HERBICIDAL PYRIDAZINONE DERIVATIVES” (priority 2007, published 2010)", "experiment_in_all_cases": "Test E pre-/postemergence plant response", "assay_type_in_all_cases": "in vivo", "key": {"[1]": {"tested_on": "common mallow (Malva sylvestris)", "settings": "scale 0 to 100", "procedure,_shortened": "(§1)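 Formulated in a non-phytotoxic solvent mixture containing surfactant, compound was applied to soil at planting or sprayed on emerged plants at the 1- to 4-leaf stage. Visual comparison with controls followed 14 to 21 days in the greenhouse; 0 = no effect, 100 = complete control.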"}, "[2]": {"tested_on": "annual bluegrass (Poa annua)", "settings": "scale 0 to 100", "procedure,_shortened": "as §1"}, "[3]": {"tested_on": "goosegrass (Eleusine indica)", "settings": "scale 0 to 100", "procedure,_shortened": "as §1"}, "[4]": {"tested_on": "johnsongrass (Sorghum halepense)", "settings": "scale 0 to 100", "procedure,_shortened": "as §1"}, "[5]": {"tested_on": "surinam grass (Brachiaria decumbens)", "settings": "scale 0 to 100", "procedure,_shortened": "as §1"}, "[6]": {"tested_on": "barnyardgrass (Echinochloa crus-galli)", "procedure,_shortened": "as §1"}, "[7]": {"tested_on": "pitted morningglory (Ipomoea lacunosa)", "settings": "scale 0 to 100", "procedure,_shortened": "as §1"}, "[8]": {"tested_on": "purple nutsedge (Cyperus rotundus)", "settings": "scale 0 to 100", "procedure,_shortened": "as §1"}, "[9]": {"tested_on": "green foxtail (Setaria viridis)", "settings": "scale 0 to 100", "procedure,_shortened": "as §1"}, "[10]": {"tested_on": "guineagrass (Panicum maximum)", "settings": "scale 0 to 100", "procedure,_shortened": "as §1"}, "[11]": {"tested_on": "bermudagrass (Cynodon dactylon)", "settings": "scale 0 to 100", "procedure,_shortened": "as §1"}, "[12]": {"tested_on": "itchgrass (Rottboellia cochinchinensis)", "settings": "scale 0 to 100", "procedure,_shortened": "as §1"}}, "data": [{"molecule": "CCc1cc(-c2ccc(C(F)(F)F)cc2)nn1-c1c(OS(C)(=O)=O)cnn(C)c1=O", "note": "[Compound 19]", "values": [{"measurement": "Plant response rating, Mallow", "setting": "[1]; 4 g ai/ha, Postemergence", "value": 0}, {"measurement": "Plant response rating, Mallow", "setting": "[1]; 16 g ai/ha, Preemergence", "value": 0}, {"measurement": "Plant response rating, Mallow", "setting": "[1]; 31 g ai/ha, Preemergence", "value": 0}, {"measurement": "Plant response rating, Mallow", "setting": "[1]; Postemergence, 8 g ai/ha", "value": 0}, {"measurement": "Plant response rating, Mallow", "setting": "[1]; Postemergence, 16 g ai/ha", "value": 0}, {"measurement": "Plant response rating, Mallow", "setting": "[1]; Postemergence, 31 g ai/ha", "value": 0}, {"measurement": "Plant response rating, Bluegrass", "setting": "[2]; 4 g ai/ha, Postemergence", "value": 0}, {"measurement": "Plant response rating, Bluegrass", "setting": "[2]; 8 g ai/ha, Preemergence", "value": 0}, {"measurement": "Plant response rating, Bluegrass", "setting": "[2]; 16 g ai/ha, Preemergence", "value": 0}, {"measurement": "Plant response rating, Bluegrass", "setting": "[2]; 31 g ai/ha, Preemergence", "value": 0}, {"measurement": "Plant response rating, Bluegrass", "setting": "[2]; Postemergence, 8 g ai/ha", "value": 0}, {"measurement": "Plant response rating, Bluegrass", "setting": "[2]; Postemergence, 16 g ai/ha", "value": 0}, {"measurement": "Plant response rating, Bluegrass", "setting": "[2]; Postemergence, 31 g ai/ha", "value": 0}, {"measurement": "Plant response rating, Bluegrass", "setting": "[2]; Preemergence, 4 g ai/ha", "value": 0}, {"measurement": "Plant response rating, Goosegrass", "setting": "[3]; 4 g ai/ha, Postemergence", "value": 0}, {"measurement": "Plant response rating, Goosegrass", "setting": "[3]; 8 g ai/ha, Preemergence", "value": 40}, {"measurement": "Plant response rating, Goosegrass", "setting": "[3]; 16 g ai/ha, Preemergence", "value": 70}, {"measurement": "Plant response rating, Goosegrass", "setting": "[3]; 31 g ai/ha, Preemergence", "value": 90}, {"measurement": "Plant response rating, Goosegrass", "setting": "[3]; Postemergence, 8 g ai/ha", "value": 25}, {"measurement": "Plant response rating, Goosegrass", "setting": "[3]; Postemergence, 16 g ai/ha", "value": 60}, {"measurement": "Plant response rating, Goosegrass", "setting": "[3]; Postemergence, 31 g ai/ha", "value": 75}, {"measurement": "Plant response rating, Goosegrass", "setting": "[3]; Preemergence, 4 g ai/ha", "value": 15}, {"measurement": "Plant response rating, Johnsongrass", "setting": "[4]; 4 g ai/ha, Postemergence", "value": 90}, {"measurement": "Plant response rating, Johnsongrass", "setting": "[4]; 16 g ai/ha, Preemergence", "value": 95}, {"measurement": "Plant response rating, Johnsongrass", "setting": "[4]; 31 g ai/ha, Preemergence", "value": 98}, {"measurement": "Plant response rating, Johnsongrass", "setting": "[4]; Postemergence, 8 g ai/ha", "value": 90}, {"measurement": "Plant response rating, Johnsongrass", "setting": "[4]; Postemergence, 16 g ai/ha", "value": 100}, {"measurement": "Plant response rating, Johnsongrass", "setting": "[4]; Postemergence, 31 g ai/ha", "value": 100}, {"measurement": "Plant response rating, Johnsongrass", "setting": "[4]; Preemergence, 4 g ai/ha", "value": 75}, {"measurement": "Plant response rating, Surinam Grass", "setting": "[5]; 4 g ai/ha, Postemergence", "value": 35}, {"measurement": "Plant response rating, Surinam Grass", "setting": "[5]; 16 g ai/ha, Preemergence", "value": 100}, {"measurement": "Plant response rating, Surinam Grass", "setting": "[5]; 31 g ai/ha, Preemergence", "value": 100}, {"measurement": "Plant response rating, Surinam Grass", "setting": "[5]; Postemergence, 8 g ai/ha", "value": 70}, {"measurement": "Plant response rating, Surinam Grass", "setting": "[5]; Postemergence, 16 g ai/ha", "value": 95}, {"measurement": "Plant response rating, Surinam Grass", "setting": "[5]; Postemergence, 31 g ai/ha", "value": 100}, {"measurement": "Plant response rating, Surinam Grass", "setting": "[5]; Preemergence, 4 g ai/ha", "value": 50}, {"measurement": "Plant response rating, Barnyardgrass", "setting": "[6]; 4 g ai/ha, Postemergence, scale 0 to 100", "value": 90}, {"measurement": "Plant response rating, Barnyardgrass", "setting": "[6]; 8 g ai/ha, Preemergence, scale 0 to 100", "value": 75}, {"measurement": "Plant response rating, Barnyardgrass", "setting": "[6]; 16 g ai/ha, Preemergence, scale 0 to 100", "value": 95}, {"measurement": "Plant response rating, Barnyardgrass", "setting": "[6]; 31 g ai/ha, Preemergence, scale 0 to 100", "value": 100}, {"measurement": "Plant response rating, Barnyardgrass", "setting": "[6]; Postemergence, 8 g ai/ha, scale 0 to 100", "value": 98}, {"measurement": "Plant response rating, Barnyardgrass", "setting": "[6]; Postemergence, 16 g ai/ha, scale 0 to 100", "value": 100}, {"measurement": "Plant response rating, Barnyardgrass", "setting": "[6]; Postemergence, 31 g ai/ha, scale 0 to 100", "value": 100}, {"measurement": "Plant response rating, Barnyardgrass", "setting": "[6]; Preemergence, 4 g ai/ha, scale 0 to 100, 0 no effect, 100 complete control", "value": 0}, {"measurement": "Plant response rating, Morningglory", "setting": "[7]; 4 g ai/ha, Postemergence", "value": 0}, {"measurement": "Plant response rating, Morningglory", "setting": "[7]; 16 g ai/ha, Preemergence", "value": 0}, {"measurement": "Plant response rating, Morningglory", "setting": "[7]; 31 g ai/ha, Preemergence", "value": 0}, {"measurement": "Plant response rating, Morningglory", "setting": "[7]; Postemergence, 8 g ai/ha", "value": 0}, {"measurement": "Plant response rating, Morningglory", "setting": "[7]; Postemergence, 16 g ai/ha", "value": 0}, {"measurement": "Plant response rating, Morningglory", "setting": "[7]; Postemergence, 31 g ai/ha", "value": 0}, {"measurement": "Plant response rating, Morningglory", "setting": "[7]; Preemergence, 4 g ai/ha", "value": 0}, {"measurement": "Plant response rating, Nutsedge, Purple", "setting": "[8]; 4 g ai/ha, Postemergence", "value": 0}, {"measurement": "Plant response rating, Nutsedge, Purple", "setting": "[8]; Postemergence, 16 g ai/ha", "value": 0}, {"measurement": "Plant response rating, Nutsedge, Purple", "setting": "[8]; Preemergence, 4 g ai/ha", "value": 0}, {"measurement": "Plant response rating, Foxtail, Green", "setting": "[9]; 4 g ai/ha, Postemergence", "value": 20}, {"measurement": "Plant response rating, Foxtail, Green", "setting": "[9]; 8 g ai/ha, Preemergence", "value": 40}, {"measurement": "Plant response rating, Foxtail, Green", "setting": "[9]; 16 g ai/ha, Preemergence", "value": 65}, {"measurement": "Plant response rating, Foxtail, Green", "setting": "[9]; 31 g ai/ha, Preemergence", "value": 100}, {"measurement": "Plant response rating, Foxtail, Green", "setting": "[9]; Postemergence, 8 g ai/ha", "value": 90}, {"measurement": "Plant response rating, Foxtail, Green", "setting": "[9]; Postemergence, 16 g ai/ha", "value": 95}, {"measurement": "Plant response rating, Foxtail, Green", "setting": "[9]; Postemergence, 31 g ai/ha", "value": 100}, {"measurement": "Plant response rating, Foxtail, Green", "setting": "[9]; Preemergence, 4 g ai/ha", "value": 0}, {"measurement": "Plant response rating, Guineagrass", "setting": "[10]; 4 g ai/ha, Postemergence", "value": 80}, {"measurement": "Plant response rating, Guineagrass", "setting": "[10]; 16 g ai/ha, Preemergence", "value": 100}, {"measurement": "Plant response rating, Guineagrass", "setting": "[10]; 31 g ai/ha, Preemergence", "value": 100}, {"measurement": "Plant response rating, Guineagrass", "setting": "[10]; Postemergence, 8 g ai/ha", "value": 90}, {"measurement": "Plant response rating, Guineagrass", "setting": "[10]; Postemergence, 16 g ai/ha", "value": 95}, {"measurement": "Plant response rating, Guineagrass", "setting": "[10]; Postemergence, 31 g ai/ha", "value": 98}, {"measurement": "Plant response rating, Guineagrass", "setting": "[10]; Preemergence, 4 g ai/ha", "value": 60}, {"measurement": "Plant response rating, Bermudagrass", "setting": "[11]; 4 g ai/ha, Postemergence", "value": 15}, {"measurement": "Plant response rating, Bermudagrass", "setting": "[11]; 8 g ai/ha, Preemergence", "value": 60}, {"measurement": "Plant response rating, Bermudagrass", "setting": "[11]; 16 g ai/ha, Preemergence", "value": 95}, {"measurement": "Plant response rating, Bermudagrass", "setting": "[11]; 31 g ai/ha, Preemergence", "value": 100}, {"measurement": "Plant response rating, Bermudagrass", "setting": "[11]; Postemergence, 8 g ai/ha", "value": 35}, {"measurement": "Plant response rating, Bermudagrass", "setting": "[11]; Postemergence, 16 g ai/ha", "value": 35}, {"measurement": "Plant response rating, Bermudagrass", "setting": "[11]; Postemergence, 31 g ai/ha", "value": 80}, {"measurement": "Plant response rating, Bermudagrass", "setting": "[11]; Preemergence, 4 g ai/ha", "value": 25}, {"measurement": "Plant response rating, Itchgrass", "setting": "[12]; 4 g ai/ha, Postemergence", "value": 0}, {"measurement": "Plant response rating, Itchgrass", "setting": "[12]; 16 g ai/ha, Preemergence", "value": 65}, {"measurement": "Plant response rating, Itchgrass", "setting": "[12]; 31 g ai/ha, Preemergence", "value": 80}, {"measurement": "Plant response rating, Itchgrass", "setting": "[12]; Postemergence, 8 g ai/ha", "value": 20}, {"measurement": "Plant response rating, Itchgrass", "setting": "[12]; Postemergence, 16 g ai/ha", "value": 70}, {"measurement": "Plant response rating, Itchgrass", "setting": "[12]; Postemergence, 31 g ai/ha", "value": 80}, {"measurement": "Plant response rating, Itchgrass", "setting": "[12]; Preemergence, 4 g ai/ha", "value": 10}]}]}
